Data: patent US20120128705A1, “C6ORF167 PEPTIDES AND VACCINES CONTAINING THE SAME” (OncoTherapy Science, Inc., priority 2009, published 2012)
Ends that are not written are not given here.

system: peptide-pulsed T2; assay: IFN-gamma ELISA assay of CTL lines (HLA-A*0201); format: cell-based, human; settings: target cells pulsed with corresponding peptide vs without peptide pulse
Method: CTLs were expanded in culture using the method similar to the one described by Riddell et al. (Walter E A et al., N Engl J Med 1995 Oct. 19, 333(16): 1038-44; Riddell S R et al., Nat Med 1996 February, 2(2): 216-23). A total of 5×10^4 CTLs were suspended in 25 ml of AIM-V/5% AS medium with 2 kinds of human B-lymphoblastoid cell lines, inactivated by Mitomycin C, in the presence of 40 ng/ml of anti-CD3 monoclonal antibody (Pharmingen). One day after initiating the cultures, 120 IU/ml of IL-2 were added to the cultures. The cultures were fed with fresh AIM-V/5% AS medium containing 30 IU/ml of IL-2 on days 5, 8 and 11 (Tanaka H et al., Br J Cancer 2001 Jan. 5, 84(1): 94-9; Umano Y et al., Br J Cancer 2001 Apr. 20, 84(8): 1052-7; Uchida N et al., Clin Cancer Res 2004 Dec. 15, 10(24): 8577-86; Suda T et al., Cancer Sci 2006 May, 97(5): 411-9; Watanabe T et al., Cancer Sci 2005 August, 96(8): 498-506).
(§1) To examine specific CTL activity, interferon (IFN)-gamma enzyme-linked immunospot (ELISPOT) assay and IFN-gamma enzyme-linked immunosorbent assay (ELISA) were performed. Specifically, peptide-pulsed T2 (1×10^4/well) was prepared as stimulator cells. Cultured cells in 48 wells were used as responder cells. IFN-gamma ELISPOT assay and IFN-gamma ELISA assay were performed under manufacture procedure.

Row | Substance | IFN-gamma production of CTL lines by ELISA
1 | ALVRFFEAV [SEQ ID NO: 76] | potent IFN-gamma production
2 | FLCILAKVV [SEQ ID NO: 84] | potent IFN-gamma production
3 | FLLLaAVAEV (FLLLAAVAEV; not fully specified; printed as FLLLaAVAEV) [SEQ ID NO: 101] | potent IFN-gamma production
4 | FLLMyAQKNL (FLLMYAQKNL; not fully specified; printed as FLLMyAQKNL) [SEQ ID NO: 112] | potent IFN-gamma production
5 | FLTDsLELEL (FLTDSLELEL; not fully specified; printed as FLTDsLELEL) [SEQ ID NO: 111] | potent IFN-gamma production
6 | GLQNfFSLFL (GLQNFFSLFL; not fully specified; printed as GLQNfFSLFL) [SEQ ID NO: 110] | potent IFN-gamma production
7 | KLTRLLFNL [SEQ ID NO: 65] | potent IFN-gamma production
8 | LLCDlISLSL (LLCDLISLSL; not fully specified; printed as LLCDlISLSL) [SEQ ID NO: 123] | potent IFN-gamma production
9 | QQCVlFLHYV (QQCVLFLHYV; not fully specified; printed as QQCVlFLHYV) [SEQ ID NO: 113] | potent IFN-gamma production
10 | VLFLHYVKV [SEQ ID NO: 66] | potent IFN-gamma production
11 | WLVLeILYML (WLVLEILYML; not fully specified; printed as WLVLeILYML) [SEQ ID NO: 117] | potent IFN-gamma production

system: peptide-pulsed T2; assay: IFN-gamma ELISPOT assay on CTLs induced with peptide (HLA-A*0201); format: cell-based, human; settings: CTLs from HLA-A*0201 positive donor, 3 rounds of stimulation, day 21; vs control wells without peptide
Source text: Monocyte-derived dendritic cells (DCs) were used as antigen-presenting cells to induce cytotoxic T lymphocyte (CTL) responses against peptides presented on human leukocyte antigen (HLA). DCs were generated in vitro as described elsewhere (Nakahara S et al., Cancer Res 2003 Jul. 15, 63(14): 4112-8). Specifically, peripheral blood mononuclear cells (PBMCs) isolated from a normal volunteer (HLA-A*0201 positive) by Ficoll-Plaque (Pharmacia) solution were separated by adherence to a plastic tissue culture dish (Becton Dickinson) so as to enrich them as the monocyte fraction. The monocyte-enriched population was cultured in the presence of 1,000 U/ml of granulocyte-macrophage colony-stimulating factor (R&D System) and 1,000 U/ml of interleukin (IL)-4 (R&D System) in AIM-V Medium (Invitrogen) containing 2% heat-inactivated autologous serum (AS). After 7 days of culture, the cytokine-induced DCs were pulsed with 20 micro-g/ml of each of the synthesized peptides in the presence of 3 micro-g/ml of beta 2-microglobulin for 3 hrs at 37 degrees C. in AIM-V Medium. The generated cells appeared to express DC-associated molecules, such as CD80, CD83, CD86 and HLA class II, on their cell surfaces (data not shown). These peptide-pulsed DCs were then inactivated by X-irradiated (20 Gy) and mixed at a 1:20 ratio with autologous CD8+ T cells, obtained by positive selection with CD8 positive Isolation Kit (Dynal). These cultures were set up in 48-well plates (Corning); each well contained 1.5×10^4 peptide-pulsed DCs, 3×10^5 CD8+ T cells and 10 ng/ml of IL-7 (R&D System) in 0.5 ml of AIM-V/2% AS medium. Three days later, these cultures were supplemented with IL-2 (CHIRON) to a final concentration of 20 IU/ml. On days 7 and 14, the T cells were further stimulated with the autologous peptide-pulsed DCs. The DCs were prepared each time by the same way described above. CTL was tested against peptide-pulsed T2 cells after the 3rd round of peptide stimulation on day 21 (Tanaka H et al., Br J Cancer 2001 Jan. 5, 84(1): 94-9; Umano Y et al., Br J Cancer 2001 Apr. 20, 84(8): 1052-7; Uchida N et al., Clin Cancer Res 2004 Dec. 15, 10(24): 8577-86; Suda T et al., Cancer Sci 2006 May, 97(5): 411-9; Watanabe T et al., Cancer Sci 2005 August, 96(8): 498-506).
as §1

Row | Substance | Peptide specific CTL activity: IFN-gamma production by ELISPOT
12 | ALVRFFEAV [SEQ ID NO: 76] | potent IFN-gamma production
13 | FLCILAKVV [SEQ ID NO: 84] | potent IFN-gamma production
14 | FLLLaAVAEV (FLLLAAVAEV; not fully specified; printed as FLLLaAVAEV) [SEQ ID NO: 101] | potent IFN-gamma production
15 | FLLMyAQKNL (FLLMYAQKNL; not fully specified; printed as FLLMyAQKNL) [SEQ ID NO: 112] | potent IFN-gamma production
16 | FLTDsLELEL (FLTDSLELEL; not fully specified; printed as FLTDsLELEL) [SEQ ID NO: 111] | potent IFN-gamma production
17 | GLQNfFSLFL (GLQNFFSLFL; not fully specified; printed as GLQNfFSLFL) [SEQ ID NO: 110] | potent IFN-gamma production
18 | KLTRLLFNL [SEQ ID NO: 65] | potent IFN-gamma production
19 | LLCDlISLSL (LLCDLISLSL; not fully specified; printed as LLCDlISLSL) [SEQ ID NO: 123] | potent IFN-gamma production
20 | QQCVlFLHYV (QQCVLFLHYV; not fully specified; printed as QQCVlFLHYV) [SEQ ID NO: 113] | potent IFN-gamma production
21 | VLFLHYVKV [SEQ ID NO: 66] | potent IFN-gamma production
22 | WLVLeILYML (WLVLEILYML; not fully specified; printed as WLVLeILYML) [SEQ ID NO: 117] | potent IFN-gamma production

system: peptide-pulsed T2; assay: IFN-gamma ELISA assay of CTL clones (HLA-A*0201); format: cell-based, human; settings: clones by limiting dilution; target cells pulsed with peptide
Method: The dilutions were made to have 0.3, 1, and 3 CTLs/well in 96 round-bottomed micro titer plate (Nalge Nunc International). CTLs were cultured with 1×10^4 cells/well of 2 kinds of human B-lymphoblastoid cell lines, 30 ng/ml of anti-CD3 antibody, and 125 U/ml of IL-2 in a total of 150 micro-l/well of AIM-V Medium containing 5% AS. 50 micro-1/well of IL-2 were added to the medium 10 days later so to reach a final concentration of 125 U/ml IL-2. CTL activity was tested on the 14th day, and CTL clones were expanded using the same method as described above (Uchida N et al., Clin Cancer Res 2004 Dec. 15, 10(24): 8577-86; Suda T et al., Cancer Sci 2006 May, 97(5): 411-9; Watanabe T et al., Cancer Sci 2005 August, 96(8): 498-506).
as §1

Row | Substance | IFN-gamma production of CTL clones by ELISA
23 | ALVRFFEAV [SEQ ID NO: 76] | Potent IFN-gamma productions
24 | FLCILAKVV [SEQ ID NO: 84] | Potent IFN-gamma productions
25 | FLLLaAVAEV (FLLLAAVAEV; not fully specified; printed as FLLLaAVAEV) [SEQ ID NO: 101] | Potent IFN-gamma productions
26 | FLTDsLELEL (FLTDSLELEL; not fully specified; printed as FLTDsLELEL) [SEQ ID NO: 111] | Potent IFN-gamma productions
27 | GLQNfFSLFL (GLQNFFSLFL; not fully specified; printed as GLQNfFSLFL) [SEQ ID NO: 110] | Potent IFN-gamma productions
28 | KLTRLLFNL [SEQ ID NO: 65] | Potent IFN-gamma productions
29 | QQCVlFLHYV (QQCVLFLHYV; not fully specified; printed as QQCVlFLHYV) [SEQ ID NO: 113] | Potent IFN-gamma productions
30 | VLFLHYVKV [SEQ ID NO: 66] | Potent IFN-gamma productions
